From PMC5021374, “An Arginine Finger Regulates the Sequential Action of Asymmetrical Hexameric ATPase in the Double-Stranded DNA Translocation Motor” (Molecular and Cellular Biology, 2016)

Legend:
[1] = target: T1, gp16 ATPase (ϕ29 motor ATPase gp16) (Bacillus phage phi29, UniProt P11014); test: EMSA with 33-bp Cy5-dsDNA (nucleotide-dependent DNA binding; indirect); settings: nonhydrolysable ATP analog; 33-bp Cy5-dsDNA present; ambient temperature, 20 min
T1 construct: gene 16; full-length gp16 with tags: SUMO-gp16 (Trp fluorescence), His-gp16 (trypsin probing), eGFP-gp16 (EMSA; N-terminal eGFP); homohexamer, monomer/dimer mixture in solution
T1 sequence (P11014 1-332): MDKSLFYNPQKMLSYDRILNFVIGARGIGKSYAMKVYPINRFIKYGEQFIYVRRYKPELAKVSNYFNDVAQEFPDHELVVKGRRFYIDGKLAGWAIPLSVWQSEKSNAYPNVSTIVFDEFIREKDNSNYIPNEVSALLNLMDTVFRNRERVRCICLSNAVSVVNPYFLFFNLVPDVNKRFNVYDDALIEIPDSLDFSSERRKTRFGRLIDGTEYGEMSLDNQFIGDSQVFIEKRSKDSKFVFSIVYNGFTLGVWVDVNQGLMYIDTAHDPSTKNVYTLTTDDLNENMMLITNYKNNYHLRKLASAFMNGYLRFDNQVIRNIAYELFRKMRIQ

[2] = target: T1, gp16 ATPase (ϕ29 motor ATPase gp16); test: intrinsic tryptophan fluorescence (SUMO-gp16); also trypsin probing (His-gp16); type: binding; settings: 2 mM Tris pH 8.0, 0.005% Tween 20, 1.5% PEG 8000, 0.5% acetone; excitation 280 nm
[3] = target: T1, gp16 ATPase (ϕ29 motor ATPase gp16); test: fluorescent phosphate binding protein assay of ATP hydrolysis; type: biochemical; settings: DNA-dependent ATPase; tag in this assay not stated

| SMILES | EMSA with 33-bp Cy5-dsDNA (nucleotide-dependent DNA binding; indirect) [1] | intrinsic tryptophan fluorescence (SUMO-gp16); also trypsin probing (His-gp16) [2] | fluorescent phosphate binding protein assay of ATP hydrolysis [3] |
| --- | --- | --- | --- |
| Nc1ncnc2c1ncn2[C@@H]1O[C@H](COP(=O)(O)OP(=O)(O)OP(O)(O)=S)[C@@H](O)[C@H]1O [γ-S-ATP] | Stronger binding of gp16 to dsDNA was observed when gp16 was incubated with γ-S-ATP |  |  |
| Nc1ncnc2c1ncn2[C@@H]1O[C@H](COP(=O)(O)OP(=O)(O)OP(=O)(O)O)[C@@H](O)[C@H]1O [ATP] |  | both assays indicated a conformational change in the gp16-ATP complex | a phosphate binding protein conjugated to a fluorescent probe ... was used to assay ATP hydrolysis |
